“And” between values parts separate entries of the source, which are not always exact repeats. Identical values can stand only once.
Test system: 156681-154-R-J1-PDC tumor spheroids, viability % test/control
Test: Anticancer human tumor 156681-154-R-J1-PDC patient-derived melanoma cell line growth inhibition [TAK]
Settings: spheroids with HUVEC and MSC; for viability, T/C: stronger effect = lower value; active = viability on the fitted dose curve at most 10% of control; inactive = the rest
Text: Combinatorial screen of targeted agents with TAK-243 and ipatasertib in multi-cell type tumor spheroids
A high-throughput screen of multi-cell type tumor spheroids was designed to identify active combinations of targeted small molecules and TAK-243 or ipatasertib. Complex spheroids include a stromal component modeled by human endothelial cells (HUVEC) and fibroblasts modeled by human mesenchymal stem cells (MSCs). The concentration ranges selected for each drug and investigational agent were based upon clinically achievable concentrations if the clinical Cmax of the agent was known.
Compounds. The drugs and investigational agents: TAK-243 (785004), ipatasertib (767898), everolimus (733504), selumetinib (741078), bortezomib (756655), trametinib (758246), ixazomib (758254), vemurafenib (761431), dabrafenib (764134), sapanisertib (764658), alpelisib (765974), and copanlisib (816437), were obtained from the National Cancer Institute (NCI) Developmental Therapeutics Program Chemical Repository. The FDA-approved anticancer drug set is available from the NCI Developmental Therapeutics Program. […] The stock solutions were prepared in dimethyl sulfoxide (DMSO, Sigma-Aldrich, St. Louis, MO, cat. D2650) at 800-fold the tested concentration and stored at -70 degrees C prior to their use. All drugs and investigational agents were tested over a range starting from a high concentration at or near the clinical Cmax and decreasing in half-log increments. If the clinical Cmax for an agent had not been determined, the highest concentration tested was 10 microM.
NCI60 Cell Culture. NCI60 cell lines were obtained from the NCI Developmental Therapeutics Program Tumor Repository. For each lot of cells, the Repository performed Applied Biosystems AmpFLSTR Identifiler testing with PCR amplification to confirm consistency with the published Identifier STR profile for each cell line. Cells were kept in continuous culture for no more than 20 passages. The optimal seeding densities for each of the cell lines at each time point assessed were determined prior to performing the concentration response studies. Briefly, the NCI60 human tumor lines were grown as monolayers in RPMI 1640 medium supplemented with 10% FBS and 2 mmol/L L-glutamine.
An additional 2 lines were from the NCI60 cell line panel including melanomas, MALME-3M and SK-MEL-2. Pooled donor human umbilical vein endothelial cells (HUVEC, Lonza, cat. CC-2519) and human mesenchymal stem cells (hMSC, Lonza, cat. PT-2501) were purchased from Lonza (Walkersville, MD).
PDMR cell lines were grown in complete medium (DC medium): Dulbecco's modified Eagle's medium (DMEM)/F12 supplemented with 5% fetal bovine serum (FBS), 2 mM L-glutamine, 100 U/mL penicillin and 100 µg/ml streptomycin, 0.4 µg/ml hydrocortisone, 10 ng/ml epidermal growth factor (EGF) recombinant human protein, 24 µg/mL adenine, and 0.1 mg/mL primocin. During culture from frozen stock vials, PDMR cells were cultured in the same medium containing 10 µM Y-27632 (see Table 3). The PDCs were cultured in complete DMEM/F12 media without 10 microM Y-27632 dihydrochloride for at least two passages prior to the screen. The pooled donor HUVEC and hMSC were cultured in endothelial cell growth medium 2 (PromoCell, Heidelberg, Germany, cat. C-22011) and mesenchymal stem cell growth medium 2 (PromoCell, cat. C-28009), respectively. For all experiments, HUVEC and hMSC were used at passages </=5.
For the pre-screen, cell seeding densities were determined from a titration spanning the range from 5,000 to 313 cells per well. The mct-spheroids including 60% malignant cells, 25% HUVEC and 15% MSC dispensed as a mixture into U-bottom Ultra-Low Attachment 384-well plates (Corning, NY)
High-throughput Drug Combination Screening.
Prior to their inoculation into 384-well plates, malignant cells, HUVEC, and hMSC were removed from T flasks using TrypLE express (Thermo Fisher Scientific, cat. 12605036) and harvested by centrifugation for 5 min at 233 x g. […]
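Note: spheroids exposed to compounds for 7 days before the endpoint.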

Cc1nc(NC(=O)N2CCCC2C(N)=O)sc1-c1ccnc(C(C)(C)C(F)(F)F)c1 (stereo not drawn)
> 10000 nM: IC50 (curve of compound)
inactive: viability, T/C (compound 0.0316 µM) 97.2% and 99.7% | viability, T/C (compound 0.1 µM) 94.9% and 98.4% | viability, T/C (compound 0.316 µM) 86.1% and 86.6% | viability, T/C (compound 1 µM) 86.8% and 74.4% | viability, T/C (compound 3.16 µM) 67.9% and 64.5% | viability, T/C (compound 10 µM) 52.8% and 56.2%

CC(C)n1nc(-c2ccc3oc(N)nc3c2)c2c(N)ncnc21
33.9 nM and 43.3 nM: IC50 (curve of compound)
inactive: viability, T/C (compound 0.000316 µM) 97.2% and 94.8% | viability, T/C (compound 0.001 µM) 95.3% and 91.7% | viability, T/C (compound 0.00316 µM) 81.4% and 96.3% | viability, T/C (compound 0.01 µM) 80.2% and 86.3% | viability, T/C (compound 0.0316 µM) 48% and 56.1% | viability, T/C (compound 0.1 µM) 33.3% and 34.1%

CC(C)CC(NC(=O)C(Cc1ccccc1)NC(=O)c1cnccn1)B(O)O (stereo not drawn)
2.55 nM and 2.05 nM: IC50 (curve of compound)
active: viability, T/C (compound 0.01 µM) 0.36% and 0.32%
inactive: viability, T/C (compound 31.6 pM) 91.3% and 98.6% | viability, T/C (compound 0.0001 µM) 90.4% and 95.9% | viability, T/C (compound 0.000316 µM) 98.8% and 103% | viability, T/C (compound 0.001 µM) 94.7% and 103% | viability, T/C (compound 0.00316 µM) 39.8% and 19.6%

COc1c(OCCCN2CCOCC2)ccc2c3n(c(=NC(=O)c4cnc(N)nc4)nc12)CCN3
67.3 nM and 67 nM: IC50 (curve of compound)
active: viability, T/C (compound 1 µM) 2.91% and 1.78%
inactive: viability, T/C (compound 0.00316 µM) 101% and 102% | viability, T/C (compound 0.01 µM) 91.1% and 89.1% | viability, T/C (compound 0.0316 µM) 67.9% and 77.9% | viability, T/C (compound 0.1 µM) 41.9% and 35.2% | viability, T/C (compound 0.316 µM) 13.5% and 10.8%

CC(=O)Nc1cccc(-n2c(=O)n(C3CC3)c(=O)c3c(Nc4ccc(I)cc4F)n(C)c(=O)c(C)c32)c1
active: viability, T/C (compound 0.03 µM) 8.87% and 8.9%
inactive: viability, T/C (compound 94.9 pM) 102% and 101% | viability, T/C (compound 0.0003 µM) 105% and 111% | viability, T/C (compound 0.000949 µM) 100% and 102% | viability, T/C (compound 0.003 µM) 83.8% and 66.8% | viability, T/C (compound 0.00949 µM) 15.5% and 14.8%
5.3 nM and 4.35 nM: IC50 (curve of compound)

CC(C)NCC(C(=O)N1CCN(c2ncnc3c2C(C)CC3O)CC1)c1ccc(Cl)cc1 (stereo not drawn)
inactive: viability, T/C (compound 0.3 µM) 99.2% [middle of 10 runs] | viability, T/C (compound 0.949 µM) 91.1% [middle of 10 runs] | viability, T/C (compound 3 µM) 70.3% [middle of 10 runs] | viability, T/C (compound 9.49 µM) 41.4% [middle of 10 runs] | viability, T/C (compound 30 µM) 19.1% [middle of 10 runs]
6.66 µM [middle of 10 runs]: IC50 (compound alone, run of 02/20/2020)

CCCS(=O)(=O)Nc1ccc(F)c(C(=O)c2c[nH]c3ncc(-c4ccc(Cl)cc4)cc23)c1F + CC(C)NCC(C(=O)N1CCN(c2ncnc3c2C(C)CC3O)CC1)c1ccc(Cl)cc1
active: viability, T/C (second compound 3 µM, first compound 10 µM) 6.57% | viability, T/C (second compound 3 µM, first compound 31.6 µM) 3.37% | viability, T/C (second compound 3 µM, first compound 100 µM) 3.64% | viability, T/C (second compound 9.49 µM, first compound 10 µM) 1.52% | viability, T/C (second compound 9.49 µM, first compound 31.6 µM) 0.38% | viability, T/C (second compound 9.49 µM, first compound 100 µM) 0.73% | viability, T/C (second compound 30 µM, first compound 3.16 µM) 4.74% | viability, T/C (second compound 30 µM, first compound 10 µM) 0.42% | viability, T/C (second compound 30 µM, first compound 31.6 µM) 0.39% | viability, T/C (second compound 30 µM, first compound 100 µM) 0.5%
3820 nM: IC50 (curve of first compound, second compound 3 µM)
7510 nM: IC50 (curve of first compound, second compound 0.949 µM)
< 316 nM: IC50 (curve of first compound, second compound 9.49 µM) | IC50 (curve of first compound, second compound 30 µM)
inactive: viability, T/C (second compound 0.3 µM, first compound 0.316 µM) 104% | viability, T/C (second compound 0.3 µM, first compound 1 µM) 111% | viability, T/C (second compound 0.3 µM, first compound 3.16 µM) 103% | viability, T/C (second compound 0.3 µM, first compound 10 µM) 24.5% | viability, T/C (second compound 0.3 µM, first compound 31.6 µM) 0.49% | viability, T/C (second compound 0.3 µM, first compound 100 µM) 91.8% | viability, T/C (second compound 0.949 µM, first compound 0.316 µM) 89.5% | viability, T/C (second compound 0.949 µM, first compound 1 µM) 101% | viability, T/C (second compound 0.949 µM, first compound 3.16 µM) 85.2% | viability, T/C (second compound 0.949 µM, first compound 10 µM) 15.7% | viability, T/C (second compound 0.949 µM, first compound 31.6 µM) 16.6% | viability, T/C (second compound 0.949 µM, first compound 100 µM) 82.9% | viability, T/C (second compound 3 µM, first compound 0.316 µM) 83% | viability, T/C (second compound 3 µM, first compound 1 µM) 72.8% | viability, T/C (second compound 3 µM, first compound 3.16 µM) 58.8% | viability, T/C (second compound 9.49 µM, first compound 0.316 µM) 41.6% | viability, T/C (second compound 9.49 µM, first compound 1 µM) 42.8% | viability, T/C (second compound 9.49 µM, first compound 3.16 µM) 36.5% | viability, T/C (second compound 30 µM, first compound 0.316 µM) 19.2% | viability, T/C (second compound 30 µM, first compound 1 µM) 19.2%
8190 nM: IC50 (curve of first compound, second compound 0.3 µM)

CC(C)(C)c1nc(-c2cccc(NS(=O)(=O)c3c(F)cccc3F)c2F)c(-c2ccnc(N)n2)s1
inactive: viability, T/C (compound 0.0316 µM) 106% and 91.4% | viability, T/C (compound 0.1 µM) 95.8% and 92.3% | viability, T/C (compound 0.316 µM) 41.5% and 37.8% | viability, T/C (compound 1 µM) 17.2% and 17.8% | viability, T/C (compound 3.16 µM) 14.4% and 14.5% | viability, T/C (compound 10 µM) 18%
264 nM and 243 nM: IC50 (curve of compound)

— PubChem BioAssay AID2060363 (Molecular Pharmacology Branch, DTP, NCI, 2025)
